Experimental findings from ChEMBL document CHEMBL3045865, “Synthesis and antitumor activity of new pyrido[2,3-d]pyrimidine derivatives” (2013) are described below.

Test [1] is described as follows: Antineoplastic activity against Mus musculus (mouse) EACs transplanted in Swiss albino Mus musculus (mouse) assessed as decrease in WBC level at 5 mg/kg, ip administered 9 days measured on day 14 (reference value: 38.6 10^3/mm3). The format is functional, Ehrlich. Particulars: route intraperitoneal.
Test [2] can be described thus: Antineoplastic activity against Mus musculus (mouse) EACs transplanted in Swiss albino Mus musculus (mouse) assessed as increase in hematocritis level at 5 mg/kg, ip administered 9 days measured on day 14 (reference value: 35.5 g%). Format: functional, Ehrlich. The conditions noted are these: route intraperitoneal.
Test [3] in a line: Antineoplastic activity against Mus musculus (mouse) EACs transplanted in Swiss albino Mus musculus (mouse) assessed as increase in hemoglobin level at 5 mg/kg, ip administered 9 days measured on day 14 (reference value: 8.7 g%). The format is functional, Ehrlich. Particulars: route intraperitoneal.
Test [4] can be described thus: Antineoplastic activity against Mus musculus (mouse) EACs transplanted in Swiss albino mouse assessed as increase in life span at 20 mg/kg, ip after 9 days (reference value: 9.1%). The format is functional, Ehrlich. The conditions noted are these: route intraperitoneal.
Test [5] in a line: Induction of bleomycin-dependent DNA damage at 0.1 mg/ml after 1 hr.
Test [6] is described as follows: Antineoplastic activity against Mus musculus (mouse) EACs transplanted in Swiss albino mouse assessed as increase in life span at 5 mg/kg, ip after 9 days (reference value: 9.1%). Format: functional, Ehrlich. Particulars: route intraperitoneal.
A further test relates to Ehrlich. Put plainly: Antineoplastic activity against Mus musculus (mouse) EACs transplanted in Swiss albino mouse assessed as reduction in viable tumor cell count at 5 mg/kg, ip after 5 days by Giemsa staining. Format: functional, organism-based. More on the design: dose 5 mg/kg.

Active and inactive are the calls of the source. The rule behind the calls is not given here.

On to `O=c1[nH]cc(F)c(=O)[nH]1` [FLUOROURACIL], for which the Activity in test [1] came to 13.8 ×10³ /mm3; in test [2] it was 42.3%; in test [3], 10 g%; in test [4], 16.7%.

As for `O=C(CN1CCN(c2ccccc2)CC1)Sc1nnc(-c2cc(=O)[nH]c3[nH]c(=O)[nH]c(=O)c23)n1-c1ccc(F)cc1`, the result in test [5] was Active. `O=C(CCl)NNC(=O)c1cc(=O)[nH]c2[nH]c(=O)[nH]c(=O)c12`: the result in test [5] was Active. Same read-out and setting: the same measure for `O=C(NNC(=S)Nc1ccccc1)c1cc(=O)[nH]c2[nH]c(=O)[nH]c(=O)c12`: “Active”.

As for `O=c1cc(-c2nnc(S)n2-c2ccccc2)c2c(=O)[nH]c(=O)[nH]c2[nH]1`, the Activity in test [1] is 11.2 ×10³ /mm3; in test [2] it was 51.6%; in test [3], 11.7 g%; in test [6] it was 18.6%. The result (in test [5]; in the test with Ehrlich) was Active. As for `O=C(N/N=C/c1cccc([N+](=O)[O-])c1)c1cc(=O)[nH]c2[nH]c(=O)[nH]c(=O)c12`, in test [5], the outcome was Active. On the same count and under the same terms, the same measure for `O=C(NNC(=S)Nc1ccc(F)cc1)c1cc(=O)[nH]c2[nH]c(=O)[nH]c(=O)c12`: “Active”; for `O=C(CCl)Sc1nnc(-c2cc(=O)[nH]c3[nH]c(=O)[nH]c(=O)c23)n1-c1ccc(F)cc1`: “Active”. As to `O=C(CN1CCN(c2ccccc2)CC1)NNC(=O)c1cc(=O)[nH]c2[nH]c(=O)[nH]c(=O)c12`, the outcome in test [5] was Active. On the same count and under the same terms, the value for `O=c1cc(-c2nnc(S)n2-c2ccc(F)cc2)c2c(=O)[nH]c(=O)[nH]c2[nH]1` was “Active”. The same measure, in the same setting: the same measure for `COc1ccc(N2CCN(CC(=O)NNC(=O)c3cc(=O)[nH]c4[nH]c(=O)[nH]c(=O)c34)CC2)cc1`: “Active”; for `COc1ccc(/C=N/NC(=O)c2cc(=O)[nH]c3[nH]c(=O)[nH]c(=O)c23)cc1`: “Active”; for `NNC(=O)c1cc(=O)[nH]c2[nH]c(=O)[nH]c(=O)c12`: “Active”. The same measure, in the same setting: the same measure for `COC(=O)c1cc(=O)[nH]c2[nH]c(=O)[nH]c(=O)c12`: “Active”.
